{"source": "paper PMC5290327", "about": "“SC83288 is a clinical development candidate for the treatment of severe malaria” (Nature Communications, 2017)", "assay_in_all_cases": "KINOMEscan", "format_in_all_cases": "binding", "conditions_in_all_cases": "read-out: Remaining enzyme activity", "key": {"[1]": {"biological_target": "T1, ACVR1 (Homo sapiens, UniProt Q04771)", "T1 construct": "purchased Ambit (DiscoverX) KINOMEscan; Cerep", "T1 sequence (Q04771 21-509)": "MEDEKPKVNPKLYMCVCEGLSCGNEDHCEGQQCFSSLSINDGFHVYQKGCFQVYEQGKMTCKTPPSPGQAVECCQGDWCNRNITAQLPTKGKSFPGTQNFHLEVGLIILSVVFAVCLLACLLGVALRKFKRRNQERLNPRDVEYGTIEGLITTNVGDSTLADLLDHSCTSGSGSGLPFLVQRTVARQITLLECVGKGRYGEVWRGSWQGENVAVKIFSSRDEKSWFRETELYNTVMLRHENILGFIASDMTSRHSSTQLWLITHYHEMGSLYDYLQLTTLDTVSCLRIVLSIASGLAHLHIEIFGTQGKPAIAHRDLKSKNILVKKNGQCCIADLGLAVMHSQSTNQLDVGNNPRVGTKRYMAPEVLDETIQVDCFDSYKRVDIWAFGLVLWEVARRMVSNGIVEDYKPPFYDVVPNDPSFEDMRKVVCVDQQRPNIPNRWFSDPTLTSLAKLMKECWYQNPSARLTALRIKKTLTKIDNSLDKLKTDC", "method_in_brief": "(§1)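 Kinase preparations were T7 phage fusions produced in E. coli (32 °C until lysis, lysates clarified) or HEK-293-expressed proteins with DNA tags. These were mixed with immobilized active-site ligand and SC81458 at 10 μM. The amount of kinase in eluates was determined by qPCR.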"}, "[2]": {"biological_target": "T2, ASK2 (Homo sapiens, UniProt O95382)", "T2 construct": "purchased Ambit (DiscoverX) KINOMEscan; Cerep", "method_in_brief": "as §1"}, "[3]": {"biological_target": "T3, CAMK2g (Homo sapiens, UniProt Q13555)", "T3 construct": "purchased Ambit (DiscoverX) KINOMEscan; Cerep", "method_in_brief": "as §1"}, "[4]": {"biological_target": "T4, CAMKK1 (Homo sapiens, UniProt Q8N5S9)", "T4 construct": "purchased Ambit (DiscoverX) KINOMEscan; Cerep", "method_in_brief": "as §1"}, "[5]": {"biological_target": "T5, CDK8 (Homo sapiens, UniProt P49336)", "T5 construct": "purchased Ambit (DiscoverX) KINOMEscan; Cerep", "method_in_brief": "as §1"}, "[6]": {"biological_target": "T6, CDKL3 (Homo sapiens, UniProt Q8IVW4)", "T6 construct": "purchased Ambit (DiscoverX) KINOMEscan; Cerep", "method_in_brief": "as §1"}, "[7]": {"biological_target": "T7, CLK1 (Homo sapiens, UniProt P49759)", "T7 construct": "purchased Ambit (DiscoverX) KINOMEscan; Cerep", "method_in_brief": "as §1"}, "[8]": {"biological_target": "T8, CLK4 (Homo sapiens, UniProt Q9HAZ1)", "T8 construct": "purchased Ambit (DiscoverX) KINOMEscan; Cerep", "method_in_brief": "as §1"}, "[9]": {"biological_target": "T9, CSNK2a1 (Homo sapiens, UniProt P68400)", "T9 construct": "purchased Ambit (DiscoverX) KINOMEscan; Cerep", "method_in_brief": "as §1"}, "[10]": {"biological_target": "T10, EPHA4 (Homo sapiens, UniProt P54764)", "T10 construct": "purchased Ambit (DiscoverX) KINOMEscan; Cerep", "method_in_brief": "as §1"}, "[11]": {"biological_target": "T11, EPHB4 (Homo sapiens, UniProt P54760)", "T11 construct": "purchased Ambit (DiscoverX) KINOMEscan; Cerep", "T11 sequence (P54760 16-987)": "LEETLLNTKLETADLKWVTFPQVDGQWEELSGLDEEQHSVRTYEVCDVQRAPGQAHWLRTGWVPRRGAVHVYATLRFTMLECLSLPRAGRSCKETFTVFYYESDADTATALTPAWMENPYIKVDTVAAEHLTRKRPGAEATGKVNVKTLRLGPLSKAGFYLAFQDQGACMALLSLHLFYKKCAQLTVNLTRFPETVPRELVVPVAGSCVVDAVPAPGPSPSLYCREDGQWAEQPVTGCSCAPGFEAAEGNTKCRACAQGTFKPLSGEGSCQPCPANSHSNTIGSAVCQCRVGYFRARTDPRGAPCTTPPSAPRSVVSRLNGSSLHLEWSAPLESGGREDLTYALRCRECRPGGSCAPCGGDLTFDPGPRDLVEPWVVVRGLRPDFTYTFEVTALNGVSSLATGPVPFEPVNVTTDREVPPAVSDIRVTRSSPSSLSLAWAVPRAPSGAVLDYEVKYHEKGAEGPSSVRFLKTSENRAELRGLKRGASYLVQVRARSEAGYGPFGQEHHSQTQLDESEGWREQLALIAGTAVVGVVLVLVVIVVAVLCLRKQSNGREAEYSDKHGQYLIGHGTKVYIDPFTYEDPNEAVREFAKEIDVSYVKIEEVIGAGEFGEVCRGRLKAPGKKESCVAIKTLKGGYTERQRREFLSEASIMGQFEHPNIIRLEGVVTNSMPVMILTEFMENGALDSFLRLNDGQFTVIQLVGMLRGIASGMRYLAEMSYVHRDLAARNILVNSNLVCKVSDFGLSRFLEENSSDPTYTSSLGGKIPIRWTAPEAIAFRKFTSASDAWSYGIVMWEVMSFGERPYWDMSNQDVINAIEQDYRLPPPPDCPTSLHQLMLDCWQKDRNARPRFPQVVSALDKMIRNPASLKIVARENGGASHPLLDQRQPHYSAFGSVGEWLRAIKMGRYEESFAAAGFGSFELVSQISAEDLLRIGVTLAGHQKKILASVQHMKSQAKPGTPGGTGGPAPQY", "method_in_brief": "as §1"}, "[12]": {"biological_target": "T12, FGFR1 (Homo sapiens, UniProt P11362)", "T12 construct": "purchased Ambit (DiscoverX) KINOMEscan; Cerep", "method_in_brief": "as §1"}, "[13]": {"biological_target": "T13, FGR (Homo sapiens, UniProt P09769)", "T13 construct": "purchased Ambit (DiscoverX) KINOMEscan; Cerep", "method_in_brief": "as §1"}, "[14]": {"biological_target": "T14, ICK (Homo sapiens, UniProt Q9UPZ9)", "T14 construct": "purchased Ambit (DiscoverX) KINOMEscan; Cerep", "method_in_brief": "as §1"}, "[15]": {"biological_target": "T15, JAK1(JH1domain-catalytic) (Homo sapiens, UniProt P23458)", "T15 construct": "JAK1(JH1domain-catalytic); purchased Ambit (DiscoverX) KINOMEscan; Cerep", "T15 sequence (P23458 875-1154 limits assumed)": "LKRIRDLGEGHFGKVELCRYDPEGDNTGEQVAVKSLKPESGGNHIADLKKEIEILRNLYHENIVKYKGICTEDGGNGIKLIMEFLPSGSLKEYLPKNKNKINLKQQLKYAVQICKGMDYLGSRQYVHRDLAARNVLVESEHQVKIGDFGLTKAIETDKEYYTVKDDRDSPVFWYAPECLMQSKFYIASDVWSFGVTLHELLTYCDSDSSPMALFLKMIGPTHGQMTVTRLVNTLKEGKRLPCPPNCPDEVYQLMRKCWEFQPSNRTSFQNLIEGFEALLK", "method_in_brief": "as §1"}, "[16]": {"biological_target": "T16, JAK2(JH1domain-catalytic) (Homo sapiens, UniProt O60674)", "T16 construct": "JAK2(JH1domain-catalytic); purchased Ambit (DiscoverX) KINOMEscan; Cerep", "method_in_brief": "as §1"}, "[17]": {"biological_target": "T17, LCK (Homo sapiens, UniProt P06239)", "T17 construct": "purchased Ambit (DiscoverX) KINOMEscan; Cerep", "method_in_brief": "as §1"}, "[18]": {"biological_target": "T18, LZK (Homo sapiens, UniProt O43283)", "T18 construct": "purchased Ambit (DiscoverX) KINOMEscan; Cerep", "method_in_brief": "as §1"}, "[19]": {"biological_target": "T19, MET(M1250T) (Homo sapiens, UniProt P08581, M1250T)", "T19 construct": "purchased Ambit (DiscoverX) KINOMEscan; Cerep", "method_in_brief": "as §1"}, "[20]": {"biological_target": "T20, MYLK (Homo sapiens, UniProt Q15746)", "T20 construct": "purchased Ambit (DiscoverX) KINOMEscan; Cerep", "method_in_brief": "as §1"}, "[21]": {"biological_target": "T21, PAK1 (Homo sapiens, UniProt Q13153)", "T21 construct": "purchased Ambit (DiscoverX) KINOMEscan; Cerep", "method_in_brief": "as §1"}, "[22]": {"biological_target": "T22, PAK7 (Homo sapiens, UniProt Q9P286)", "T22 construct": "purchased Ambit (DiscoverX) KINOMEscan; Cerep", "method_in_brief": "as §1"}, "[23]": {"biological_target": "T23, PHKG1 (Homo sapiens, UniProt Q16816)", "T23 construct": "purchased Ambit (DiscoverX) KINOMEscan; Cerep", "method_in_brief": "as §1"}, "[24]": {"biological_target": "T24, PIK3CA(Q546K) (Homo sapiens, UniProt P42336, Q546K)", "T24 construct": "purchased Ambit (DiscoverX) KINOMEscan; Cerep", "method_in_brief": "as §1"}, "[25]": {"biological_target": "T25, PKAC-beta (Homo sapiens, UniProt P22694)", "T25 construct": "purchased Ambit (DiscoverX) KINOMEscan; Cerep", "method_in_brief": "as §1"}, "[26]": {"biological_target": "T26, PKN2 (Homo sapiens, UniProt Q16513)", "T26 construct": "purchased Ambit (DiscoverX) KINOMEscan; Cerep", "T26 sequence (Q16513 whole entry)": "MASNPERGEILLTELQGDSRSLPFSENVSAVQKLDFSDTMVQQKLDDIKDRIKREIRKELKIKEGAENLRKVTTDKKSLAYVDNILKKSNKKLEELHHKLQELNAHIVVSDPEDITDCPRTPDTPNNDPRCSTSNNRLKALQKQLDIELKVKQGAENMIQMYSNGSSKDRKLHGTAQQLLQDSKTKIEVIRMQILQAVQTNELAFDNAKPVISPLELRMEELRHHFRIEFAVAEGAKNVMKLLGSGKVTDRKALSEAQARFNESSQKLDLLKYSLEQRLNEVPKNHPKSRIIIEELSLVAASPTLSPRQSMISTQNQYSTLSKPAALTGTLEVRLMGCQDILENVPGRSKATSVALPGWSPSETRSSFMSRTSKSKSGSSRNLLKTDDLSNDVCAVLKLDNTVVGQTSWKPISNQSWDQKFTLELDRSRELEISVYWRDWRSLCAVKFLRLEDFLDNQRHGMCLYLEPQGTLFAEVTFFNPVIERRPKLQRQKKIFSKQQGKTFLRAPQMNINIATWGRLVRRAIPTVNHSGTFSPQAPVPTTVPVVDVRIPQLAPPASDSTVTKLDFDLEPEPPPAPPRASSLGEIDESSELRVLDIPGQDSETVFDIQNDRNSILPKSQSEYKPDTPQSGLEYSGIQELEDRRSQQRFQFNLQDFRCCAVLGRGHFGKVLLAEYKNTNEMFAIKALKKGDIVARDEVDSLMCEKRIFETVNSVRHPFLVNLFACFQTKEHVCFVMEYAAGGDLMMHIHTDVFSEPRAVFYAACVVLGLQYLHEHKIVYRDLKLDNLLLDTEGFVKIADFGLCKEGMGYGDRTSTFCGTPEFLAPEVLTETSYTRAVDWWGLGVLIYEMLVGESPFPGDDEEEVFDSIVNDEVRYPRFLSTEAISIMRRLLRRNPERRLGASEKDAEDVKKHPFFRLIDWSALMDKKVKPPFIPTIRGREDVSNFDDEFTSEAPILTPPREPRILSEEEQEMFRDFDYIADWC", "method_in_brief": "as §1"}, "[27]": {"biological_target": "T27, ROS1 (Homo sapiens, UniProt P08922)", "T27 construct": "purchased Ambit (DiscoverX) KINOMEscan; Cerep", "T27 sequence (P08922 28-2347)": "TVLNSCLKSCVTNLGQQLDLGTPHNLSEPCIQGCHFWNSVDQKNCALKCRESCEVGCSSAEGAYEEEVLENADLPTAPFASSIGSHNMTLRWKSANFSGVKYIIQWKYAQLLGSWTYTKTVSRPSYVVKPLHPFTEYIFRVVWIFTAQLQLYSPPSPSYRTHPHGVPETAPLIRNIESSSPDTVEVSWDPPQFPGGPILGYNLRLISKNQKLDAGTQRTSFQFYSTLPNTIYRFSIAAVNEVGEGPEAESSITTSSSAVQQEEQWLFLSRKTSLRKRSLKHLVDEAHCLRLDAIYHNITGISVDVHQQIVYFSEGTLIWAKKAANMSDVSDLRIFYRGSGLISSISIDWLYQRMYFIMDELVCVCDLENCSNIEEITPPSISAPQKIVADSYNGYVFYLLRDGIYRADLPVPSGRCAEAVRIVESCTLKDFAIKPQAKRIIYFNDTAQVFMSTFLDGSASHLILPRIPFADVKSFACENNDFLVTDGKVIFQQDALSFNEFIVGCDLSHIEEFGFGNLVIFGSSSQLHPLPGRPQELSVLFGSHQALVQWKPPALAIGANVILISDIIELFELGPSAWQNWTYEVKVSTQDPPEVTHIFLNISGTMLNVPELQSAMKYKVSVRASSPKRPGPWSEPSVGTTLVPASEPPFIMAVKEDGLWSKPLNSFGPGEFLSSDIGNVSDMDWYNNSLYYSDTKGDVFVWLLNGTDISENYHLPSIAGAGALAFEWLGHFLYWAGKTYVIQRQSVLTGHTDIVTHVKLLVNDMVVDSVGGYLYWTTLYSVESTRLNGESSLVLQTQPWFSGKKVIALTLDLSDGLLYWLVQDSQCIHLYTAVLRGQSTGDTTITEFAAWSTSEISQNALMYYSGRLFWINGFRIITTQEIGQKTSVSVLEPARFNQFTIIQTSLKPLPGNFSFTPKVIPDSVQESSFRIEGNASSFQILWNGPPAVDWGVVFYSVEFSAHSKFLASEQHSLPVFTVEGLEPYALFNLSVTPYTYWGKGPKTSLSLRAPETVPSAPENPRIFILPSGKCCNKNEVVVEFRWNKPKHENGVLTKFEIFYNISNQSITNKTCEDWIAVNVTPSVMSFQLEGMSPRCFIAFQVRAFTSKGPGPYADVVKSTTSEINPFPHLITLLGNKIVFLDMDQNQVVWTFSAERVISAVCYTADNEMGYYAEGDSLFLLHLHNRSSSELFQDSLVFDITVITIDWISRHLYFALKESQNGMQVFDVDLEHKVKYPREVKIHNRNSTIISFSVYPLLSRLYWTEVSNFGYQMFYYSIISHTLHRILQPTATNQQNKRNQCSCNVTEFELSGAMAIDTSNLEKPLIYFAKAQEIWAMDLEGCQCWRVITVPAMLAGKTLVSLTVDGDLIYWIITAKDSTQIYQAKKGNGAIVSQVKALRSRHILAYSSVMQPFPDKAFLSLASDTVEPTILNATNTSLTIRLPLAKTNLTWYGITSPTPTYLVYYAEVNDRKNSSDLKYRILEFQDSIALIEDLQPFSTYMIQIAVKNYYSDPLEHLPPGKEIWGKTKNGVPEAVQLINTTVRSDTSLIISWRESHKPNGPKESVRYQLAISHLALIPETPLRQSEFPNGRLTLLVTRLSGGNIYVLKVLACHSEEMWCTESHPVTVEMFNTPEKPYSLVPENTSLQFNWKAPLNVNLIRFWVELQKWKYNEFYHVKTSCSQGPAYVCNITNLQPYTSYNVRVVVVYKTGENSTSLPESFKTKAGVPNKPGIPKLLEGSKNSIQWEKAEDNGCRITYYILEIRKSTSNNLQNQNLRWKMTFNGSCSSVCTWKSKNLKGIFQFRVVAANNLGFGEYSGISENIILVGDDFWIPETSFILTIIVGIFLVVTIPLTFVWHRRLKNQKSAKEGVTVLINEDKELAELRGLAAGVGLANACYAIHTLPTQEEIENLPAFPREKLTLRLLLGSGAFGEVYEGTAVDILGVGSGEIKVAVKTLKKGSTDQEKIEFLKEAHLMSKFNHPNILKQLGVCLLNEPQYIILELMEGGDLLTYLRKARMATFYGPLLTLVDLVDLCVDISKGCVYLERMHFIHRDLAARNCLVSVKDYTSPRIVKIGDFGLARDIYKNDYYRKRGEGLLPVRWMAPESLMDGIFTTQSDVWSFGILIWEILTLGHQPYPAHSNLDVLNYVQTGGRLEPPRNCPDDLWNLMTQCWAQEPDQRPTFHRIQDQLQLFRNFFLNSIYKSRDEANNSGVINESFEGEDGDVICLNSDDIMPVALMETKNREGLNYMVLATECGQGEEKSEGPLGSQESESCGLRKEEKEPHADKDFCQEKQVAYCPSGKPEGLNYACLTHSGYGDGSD", "method_in_brief": "as §1"}, "[28]": {"biological_target": "T28, RPS6KA1(Kin.Dom.1-N-term) (Homo sapiens, UniProt Q15418)", "T28 construct": "RPS6KA1(Kin.Dom.1-N-term); purchased Ambit (DiscoverX) KINOMEscan; Cerep", "method_in_brief": "as §1"}, "[29]": {"biological_target": "T29, RPS6KA4(Kin.Dom.1-N-term) (Homo sapiens, UniProt O75676)", "T29 construct": "RPS6KA4(Kin.Dom.1-N-term); purchased Ambit (DiscoverX) KINOMEscan; Cerep", "method_in_brief": "as §1"}, "[30]": {"biological_target": "T30, TIE1 (Homo sapiens, UniProt P35590)", "T30 construct": "purchased Ambit (DiscoverX) KINOMEscan; Cerep", "method_in_brief": "as §1"}, "[31]": {"biological_target": "T31, TLK2 (Homo sapiens, UniProt Q86UE8)", "T31 construct": "purchased Ambit (DiscoverX) KINOMEscan; Cerep", "method_in_brief": "as §1"}, "[32]": {"biological_target": "T32, TXK (Homo sapiens, UniProt P42681)", "T32 construct": "purchased Ambit (DiscoverX) KINOMEscan; Cerep", "method_in_brief": "as §1"}}, "data": [{"compound": "CCCCN1CCN(C(=N)c2cccc(NC(=O)Nc3ccc(S(=O)(=O)NCc4ccc(S(N)(=O)=O)cc4)cc3)c2)CC1", "note": "[SC81458, 4-(3-(3-((4-butylpiperazin-1-yl)(imino)methyl)phenyl)ureido)-N-(4-sulfamoylbenzyl) benzenesulfonamide]", "values": [{"measurement": "remaining binding at 10 µM", "setting": "[1]", "value": 84, "unit": "%"}, {"measurement": "remaining binding at 10 µM", "setting": "[2]", "value": 100, "unit": "%"}, {"measurement": "remaining binding at 10 µM", "setting": "[3]", "value": 100, "unit": "%"}, {"measurement": "remaining binding at 10 µM", "setting": "[4]", "value": 93, "unit": "%"}, {"measurement": "remaining binding at 10 µM", "setting": "[5]", "value": 100, "unit": "%"}, {"measurement": "remaining binding at 10 µM", "setting": "[6]", "value": 98, "unit": "%"}, {"measurement": "remaining binding at 10 µM", "setting": "[7]", "value": 100, "unit": "%"}, {"measurement": "remaining binding at 10 µM", "setting": "[8]", "value": 92, "unit": "%"}, {"measurement": "remaining binding at 10 µM", "setting": "[9]", "value": 62, "unit": "%"}, {"measurement": "remaining binding at 10 µM", "setting": "[10]", "value": 98, "unit": "%"}, {"measurement": "remaining binding at 10 µM", "setting": "[11]", "value": 100, "unit": "%"}, {"measurement": "remaining binding at 10 µM", "setting": "[12]", "value": 100, "unit": "%"}, {"measurement": "remaining binding at 10 µM", "setting": "[13]", "value": 100, "unit": "%"}, {"measurement": "remaining binding at 10 µM", "setting": "[14]", "value": 73, "unit": "%"}, {"measurement": "remaining binding at 10 µM", "setting": "[15]", "value": 87, "unit": "%"}, {"measurement": "remaining binding at 10 µM", "setting": "[16]", "value": 100, "unit": "%"}, {"measurement": "remaining binding at 10 µM", "setting": "[17]", "value": 100, "unit": "%"}, {"measurement": "remaining binding at 10 µM", "setting": "[18]", "value": 100, "unit": "%"}, {"measurement": "remaining binding at 10 µM", "setting": "[19]", "value": 100, "unit": "%"}, {"measurement": "remaining binding at 10 µM", "setting": "[20]", "value": 95, "unit": "%"}, {"measurement": "remaining binding at 10 µM", "setting": "[21]", "value": 100, "unit": "%"}, {"measurement": "remaining binding at 10 µM", "setting": "[22]", "value": 100, "unit": "%"}, {"measurement": "remaining binding at 10 µM", "setting": "[23]", "value": 80, "unit": "%"}, {"measurement": "remaining binding at 10 µM", "setting": "[24]", "value": 100, "unit": "%"}, {"measurement": "remaining binding at 10 µM", "setting": "[25]", "value": 78, "unit": "%"}, {"measurement": "remaining binding at 10 µM", "setting": "[26]", "value": 67, "unit": "%"}, {"measurement": "remaining binding at 10 µM", "setting": "[27]", "value": 100, "unit": "%"}, {"measurement": "remaining binding at 10 µM", "setting": "[28]", "value": 100, "unit": "%"}, {"measurement": "remaining binding at 10 µM", "setting": "[29]", "value": 85, "unit": "%"}, {"measurement": "remaining binding at 10 µM", "setting": "[30]", "value": 99, "unit": "%"}, {"measurement": "remaining binding at 10 µM", "setting": "[31]", "value": 97, "unit": "%"}, {"measurement": "remaining binding at 10 µM", "setting": "[32]", "value": 87, "unit": "%"}]}]}
